# Earlier results, collected in US12070523B2, “Sanitization of an article using in situ electrolysis” (APPLIED BIOCIDE GMBH, priority 2022, dated 2024).
structure (smiles),measurement,setting,value
[O-][Cl+2]([O-])O [chlorate],ADI (allowable daily intake),as ClO3^−,0.0024 mg/kg BW·day
same,"Maximum residue level (MRL), smallest MRL used as worst-case","chronic exposure, Commission Regulation (EU) 2020/749",0.05 mg/kg BW·day
